IC50 data for 18 compounds are collected here from US20150148377A1, “Quinoline Derivatives” (NOVARTIS AG, priority 2011, published 2015).

One assay concerns the target T1, PI3K alpha (Homo sapiens, UniProt P42336).
T1 construct: His tag (C); made in house; host or cells: baculovirus; Tn5 (Trichoplusia ni) or TiniPro insect cells
The experiment in a line: Enzymatic PI3K alpha isoform inhibition (lipid kinase activity, Kinase-Glo). The class given is biochemical. To be noted: enzymatic assay. As to the method:
The kinase reaction is performed in a final volume of 50 μl per well of a half area COSTAR, 96 well plate. The final concentrations of ATP and phosphatidyl inositol in the assay are 5 μM and 6 μg/mL, respectively. The reaction is started by the addition of PI3 kinase, e.g. PI3 kinase δ.
(§1) In a more preferred assay, the kinase reaction is performed in a final volume of 10 μl per well of a low volume non-binding CORNING, 384 well black plate (Cat. No. #3676). The final concentrations of ATP and phosphatidyl inositol (PI) in the assay are 1 μM and 10 μg/mL, respectively. The reaction is started by the addition of ATP.
(§2) The components of the assay are added per well as follows:
(§3) 50 nl test compounds in 90% DMSO per well, in columns 1-20, 8 concentrations (1/3 and 1/3.33 serial dilution step) in single. • Low control: 50 nl of 90% DMSO in half the wells of columns 23-24 (0.45% in final). • High control: 50 nl of reference compound (e.g. compound of Example 7 in WO 2006/122806) in the other half of columns 23-24 (2.5 μM in final). • Standard: 50 nl of reference compound as just mentioned diluted as the test compounds in columns 21-22. • 20 mL ‘buffer’ are prepared per assay: • 200 μl of 1M TRIS HCl pH7.5 (10 mM in final) • 60 μl of 1M MgCl2 (3 mM in final) • 500 μl of 2M NaCl (50 mM in final) • 100 μl of 10% CHAPS (0.05% in final) • 200 μl of 100 mM DTT (1 mM in final) • 18.94 mL of nanopure water • 10 mL ‘PI’ are prepared per assay: • 200 μl of 1 mg/mL 1-alpha-Phosphatidylinositol (Liver Bovine, Avanti Polar Lipids Cat. No. 840042C MW=909.12) prepared in 3% OctylGlucoside (10 μg/mL in final) • 9.8 mL of ‘buffer’ • 10 mL ‘ATP’ are prepared per assay: • 6.7 μl of 3 mM stock of ATP giving a final concentration of 1 μM per well • 10 mL of ‘buffer’ • 2.5 mL of each PI3K construct are prepared per assay in ‘PI’ with the following final concentration: • 10 nM PI3K alfa EMV B1075 • 25 nM beta EMV BV949 • 10 nM delta EMV BV1060 • 150 nM gamma EMV BV950 • 5 μl of ‘PI/PI3K’ are added per well. • 5 μl ‘ATP’ are added per well to start the reaction. • The plates are then incubated at room temperature for 60 minutes (alfa, beta, delta) or 120 minutes (gamma). • The reaction is terminated by the addition of 10 μl Kinase-Glo (Promega Cat. No. #6714). • The assay plates are read after 10 minutes in Synergy 2 reader (BioTek, Vermont USA) with an integration time of 100 milliseconds and sensitivity set to 191. • Output: The High control is around 60'000 counts and the Low control is 30'000 or lower • This luminescence assay gives a useful Z′ ratio between 0.4 and 0.7
(§4) IC50 is determined by a four parameter curve fitting routine that comes along with “excel fit”. A four parameter logistic equation is used to calculate IC50 values (IDBS XLfit) of the percentage inhibition of each compound at 8 concentrations (usually 10, 3.0, 1.0, 0.3, 0.1, 0.030, 0.010 and 0.003 μM). Alternatively, IC50 values are calculated using idbsXLfit model 204, which is a 4 parameter logistic model.
(§5) Yet alternatively, for an ATP depletion assay, compounds of the formula I to be tested are dissolved in DMSO and directly distributed into a white 384-well plate at 0.5 μl per well. To start the reaction, 10 μl of 10 nM PI3 kinase and 5 μg/mL 1-alpha-phosphatidylinositol (PI) are added into each well followed by 10 μl of 2 μM ATP. The reaction is performed until approx 50% of the ATP is depleted, and then stopped by the addition of 20 μl of Kinase-Glo solution (Promega Corp., Madison, Wis., USA). The stopped reaction is incubated for 5 minutes and the remaining ATP is then detected via luminescence. IC50 values are then determined.

For the next assay, the target named is T2, PI3K delta (Homo sapiens, UniProt O00329).
T2 construct: for the full-length p110-d subunit are generated and fused by overlapping PCR; His tag (C); made in house; host or cells: baculovirus; Tn5 (Trichoplusia ni) or TiniPro insect cells
Put plainly: Enzymatic PI3K delta isoform inhibition (lipid kinase activity, Kinase-Glo). The class given is biochemical. Particulars: enzymatic assay. As to the method:
as §1, §2, §3, §4, §5
On the technique in general: Kinase-Glo measures the ATP left after a reaction by luminescence.

T1 sequence (P42336 with tags, fused parts or gaps limits assumed): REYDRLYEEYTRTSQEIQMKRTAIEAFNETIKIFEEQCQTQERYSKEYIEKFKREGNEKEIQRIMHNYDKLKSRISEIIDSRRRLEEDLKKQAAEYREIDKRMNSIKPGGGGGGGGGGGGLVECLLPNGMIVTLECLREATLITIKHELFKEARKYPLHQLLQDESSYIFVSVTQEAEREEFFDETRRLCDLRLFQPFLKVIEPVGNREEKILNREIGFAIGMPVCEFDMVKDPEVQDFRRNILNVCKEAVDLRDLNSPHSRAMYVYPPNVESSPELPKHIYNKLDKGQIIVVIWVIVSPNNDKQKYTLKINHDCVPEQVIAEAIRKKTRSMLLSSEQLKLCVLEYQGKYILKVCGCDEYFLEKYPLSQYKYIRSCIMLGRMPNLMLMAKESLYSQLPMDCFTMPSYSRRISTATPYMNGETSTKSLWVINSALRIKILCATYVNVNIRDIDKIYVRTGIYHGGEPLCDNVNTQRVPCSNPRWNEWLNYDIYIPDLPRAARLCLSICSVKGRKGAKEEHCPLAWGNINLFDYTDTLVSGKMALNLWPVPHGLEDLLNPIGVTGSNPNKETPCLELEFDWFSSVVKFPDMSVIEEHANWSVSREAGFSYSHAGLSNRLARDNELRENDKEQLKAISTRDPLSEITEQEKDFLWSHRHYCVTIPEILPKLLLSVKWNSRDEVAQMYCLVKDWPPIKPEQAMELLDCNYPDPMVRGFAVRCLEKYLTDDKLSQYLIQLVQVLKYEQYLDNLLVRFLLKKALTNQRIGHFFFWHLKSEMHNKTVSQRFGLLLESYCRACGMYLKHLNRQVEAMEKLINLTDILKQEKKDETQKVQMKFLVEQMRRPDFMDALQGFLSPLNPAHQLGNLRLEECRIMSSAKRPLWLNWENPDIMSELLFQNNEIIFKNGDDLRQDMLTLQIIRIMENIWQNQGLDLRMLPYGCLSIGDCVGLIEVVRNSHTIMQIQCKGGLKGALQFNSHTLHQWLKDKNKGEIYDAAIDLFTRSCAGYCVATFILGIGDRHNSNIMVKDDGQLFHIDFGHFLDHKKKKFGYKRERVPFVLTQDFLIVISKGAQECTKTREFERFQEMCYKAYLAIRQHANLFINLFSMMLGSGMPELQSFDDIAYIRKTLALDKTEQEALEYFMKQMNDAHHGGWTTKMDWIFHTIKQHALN
T2 sequence (O00329 with tags, fused parts or gaps limits assumed): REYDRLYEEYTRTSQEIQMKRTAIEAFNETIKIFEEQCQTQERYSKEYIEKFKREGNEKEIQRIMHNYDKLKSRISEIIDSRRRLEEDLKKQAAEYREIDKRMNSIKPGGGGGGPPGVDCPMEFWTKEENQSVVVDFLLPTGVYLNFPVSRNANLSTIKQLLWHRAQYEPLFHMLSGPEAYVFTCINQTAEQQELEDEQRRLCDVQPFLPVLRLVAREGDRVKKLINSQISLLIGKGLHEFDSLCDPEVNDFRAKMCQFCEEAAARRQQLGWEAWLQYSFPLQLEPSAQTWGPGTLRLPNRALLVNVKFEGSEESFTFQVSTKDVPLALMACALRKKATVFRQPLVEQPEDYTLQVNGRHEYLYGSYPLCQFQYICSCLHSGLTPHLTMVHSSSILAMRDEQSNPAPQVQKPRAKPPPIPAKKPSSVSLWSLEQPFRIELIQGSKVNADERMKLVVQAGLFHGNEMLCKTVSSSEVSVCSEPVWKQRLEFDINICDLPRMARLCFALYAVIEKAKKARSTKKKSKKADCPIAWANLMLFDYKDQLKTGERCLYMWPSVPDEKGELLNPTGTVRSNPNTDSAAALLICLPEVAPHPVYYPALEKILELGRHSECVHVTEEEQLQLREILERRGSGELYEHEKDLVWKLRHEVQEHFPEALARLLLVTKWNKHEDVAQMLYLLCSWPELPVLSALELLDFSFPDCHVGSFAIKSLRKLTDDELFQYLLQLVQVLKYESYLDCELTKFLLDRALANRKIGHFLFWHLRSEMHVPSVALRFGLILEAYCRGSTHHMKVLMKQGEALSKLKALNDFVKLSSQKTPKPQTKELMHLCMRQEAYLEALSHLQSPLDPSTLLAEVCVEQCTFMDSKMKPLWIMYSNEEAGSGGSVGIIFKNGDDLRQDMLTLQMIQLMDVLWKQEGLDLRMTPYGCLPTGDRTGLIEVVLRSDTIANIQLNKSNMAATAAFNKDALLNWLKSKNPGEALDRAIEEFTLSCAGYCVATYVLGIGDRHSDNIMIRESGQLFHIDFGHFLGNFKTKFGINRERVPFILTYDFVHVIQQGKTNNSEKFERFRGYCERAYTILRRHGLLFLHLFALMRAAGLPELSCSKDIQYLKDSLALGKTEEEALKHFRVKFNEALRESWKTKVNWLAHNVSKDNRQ

By IC50 is commonly meant the concentration that inhibits the measured activity by half. As to `Cc1cc(-c2ccnc3ccc(O[C@H]4CCN(C(=O)C5CCS(=O)(=O)CC5)C4)cc23)cnc1OC(F)F` [Example A38, {(S)-3-[4-(6-Difluoromethoxy-5-methyl-pyridin-3-yl)-quinolin-6-yloxy]-pyrrolidin-1-yl}-(1,1-dioxo-hexahydro-1lambda*6*-thiopyran-4-yl)-methanone], the IC50 was found to be 1650 nM on PI3K alpha and 48 nM on PI3K delta.

Regarding `COc1ncc(-c2ccnc3ccc(O[C@H]4CCN(C(=O)[C@@H]5CCN(C(C)=O)C5)C4)cc23)cc1C(F)(F)F` [Example A11, 1-((R)-3-{(S)-3-[4-(6-Methoxy-5-trifluoromethyl-pyridin-3-yl)-quinolin-6-yloxy]-pyrrolidine-1-carbonyl}-pyrrolidin-1-yl)-ethanone], the IC50 turned out to be 257 nM at PI3K alpha and 5 nM on PI3K delta.

`Nc1ncc(-c2ccnc3ccc(O[C@H]4CCN(C(=O)C5CCOCC5)C4)cc23)cc1C(F)(F)F` [Example A29, {(S)-3-[4-(6-Amino-5-trifluoromethyl-pyridin-3-yl)-quinolin-6-yloxy]-pyrrolidin-1-yl}-(tetrahydro-pyran-4-yl)-methanone]: the half-inhibitory concentration (IC50) is 30 nM on PI3K alpha and 17 nM on PI3K delta.

For the compound `Nc1ncc(-c2ccnc3ccc(O[C@H]4CCN(C(=O)C5CCS(=O)(=O)CC5)C4)cc23)cc1C(F)(F)F` [Example A31, {(S)-3-[4-(6-Amino-5-trifluoromethyl-pyridin-3-yl)-quinolin-6-yloxy]-pyrrolidin-1-yl}-(1,1-dioxo-hexahydro-1lambda*6*-thiopyran-4-yl)-methanone], the IC50 worked out at 30 nM at PI3K alpha and 20 nM on PI3K delta.

Regarding `CC(=O)N1CC[C@@H](C(=O)N2CC[C@H](Oc3ccc4nccc(-c5cnc(OC(F)F)c(C)c5)c4c3)C2)C1` [Example A35, 1-((R)-3-{(S)-3-[4-(6-Difluoromethoxy-5-methyl-pyridin-3-yl)-quinolin-6-yloxy]-pyrrolidine-1-carbonyl}-pyrrolidin-1-yl)-ethanone], the half-maximal inhibitory concentration (IC50) at PI3K alpha stood at 1230 nM; on PI3K delta, 29 nM.

For the compound `COc1ncc(-c2ccnc3ccc(O[C@H]4CCN(C(=O)c5cn(C)cn5)C4)cc23)cc1C#N` [Example A30, 2-Methoxy-5-{6-[(S)-1-(1-methyl-1H-imidazole-4-carbonyl)-pyrrolidin-3-yloxy]-quinolin-4-yl}-nicotinonitrile], the values for the 50% inhibitory concentration (IC50) at PI3K alpha and on PI3K delta were 381 nM and 19.5 nM, respectively.

Take `COc1ncc(-c2ccnc3ccc(O[C@H]4CCN(C(=O)C5CCOC5)C4)cc23)cc1C#N` (stereo partly drawn) [Example A12, 2-Methoxy-5-{6-[(S)-1-((R,S)-tetrahydro-furan-3-carbonyl)-pyrrolidin-3-yloxy]-quinolin-4-yl}-nicotinonitrile]: the 50% inhibitory concentration (IC50) was found to be 305 nM on PI3K alpha and 5 nM on PI3K delta.

On to `COc1ncc(-c2ccnc3ccc(O[C@H]4CCN(C(=O)c5ccc(=O)[nH]c5)C4)cc23)cc1C` [Example A5, 5-{(S)-3-[4-(6-Methoxy-5-methyl-pyridin-3-yl)-quinolin-6-yloxy]-pyrrolidine-1-carbonyl}-1H-pyridin-2-one], for which the 50% inhibitory concentration (IC50) at PI3K alpha was 231 nM; at PI3K delta it was less than 3 nM.

In the case of `COc1ncc(-c2ccnc3ccc(O[C@H]4CCN(C(=O)c5ccc(=O)[nH]c5)C4)c(C)c23)cc1C(F)F` [Example B2, 5-{(S)-3-[4-(5-Difluoromethyl-6-methoxy-pyridin-3-yl)-5-methyl-quinolin-6-yloxy]-pyrrolidine-1-carbonyl}-1H-pyridin-2-one], the IC50 amounted to 33 nM on PI3K alpha and 4 nM on PI3K delta.

Take `CS(=O)(=O)c1ncc(-c2ccnc3ccc(O[C@H]4CCN(C(=O)C5CCOCC5)C4)cc23)cc1C(F)F` [Example A17, {(S)-3-[4-(5-Difluoromethyl-6-methanesulfonyl-pyridin-3-yl)-quinolin-6-yloxy]-pyrrolidin-1-yl}-(tetrahydro-pyran-4-yl)-methanone]: the IC50 was 341 nM at PI3K alpha and 7 nM on PI3K delta.

Turning to `Cc1cc(-c2ccnc3ccc(O[C@H]4CCN(C(=O)C5CCOCC5)C4)cc23)cnc1S(C)(=O)=O` [Example A33, {(S)-3-[4-(6-Methanesulfonyl-5-methyl-pyridin-3-yl)-quinolin-6-yloxy]-pyrrolidin-1-yl}-(tetrahydro-pyran-4-yl)-methanone], the half-inhibitory concentration (IC50) at PI3K alpha was 3370 nM; at PI3K delta it was 25 nM.

As to `CNc1cc(-c2ccnc3ccc(O[C@H]4CCN(C(=O)C5CCOCC5)C4)cc23)cnc1S(C)(=O)=O` [Example A40, {(S)-3-[4-(6-Methanesulfonyl-5-methylamino-pyridin-3-yl)-quinolin-6-yloxy]-pyrrolidin-1-yl}-(tetrahydro-pyran-4-yl)-methanone], the IC50 is 2420 nM on PI3K alpha and 118 nM at PI3K delta.

In the case of `COc1ncc(-c2ccnc3ccc(O[C@H]4CCN(C(=O)C5CCS(=O)(=O)CC5)C4)cc23)cc1CF` [Example A9, (1,1-Dioxo-hexahydro-1lambda*6*-thiopyran-4-yl)-{(S)-3-[4-(5-fluoromethyl-6-methoxy-pyridin-3-yl)-quinolin-6-yloxy]-pyrrolidin-1-yl}-methanone], the values for the half-maximal inhibitory concentration (IC50) on PI3K alpha and at PI3K delta were 172 nM and 4 nM, respectively.

For `COc1ncc(-c2ccnc3ccc(O[C@H]4CCN(C(=O)c5cn(C)cn5)C4)cc23)cc1C(F)(F)F` [Example A26, {(S)-3-[4-(6-Methoxy-5-trifluoromethyl-pyridin-3-yl)-quinolin-6-yloxy]-pyrrolidin-1-yl}-(1-methyl-1H-imidazol-4-yl)-methanone], the IC50 came out at 121 nM at PI3K alpha and 13 nM on PI3K delta.

With `CS(=O)(=O)c1ncc(-c2ccnc3ccc(O[C@H]4CCN(C(=O)C5CCOCC5)C4)cc23)cc1C(F)(F)F` [Example A37, {(S)-3-[4-(6-Methanesulfonyl-5-trifluoromethyl-pyridin-3-yl)-quinolin-6-yloxy]-pyrrolidin-1-yl}-(tetrahydro-pyran-4-yl)-methanone], the concentration for half-maximal inhibition (IC50) on PI3K alpha came out at 745 nM; on PI3K delta, 43 nM.

Turning to `CCC(=O)N1CC[C@H](Oc2ccc3nccc(-c4cnc(N)c(C(F)(F)F)c4)c3c2)C1` [Example A34, 1-{(S)-3-[4-(6-Amino-5-trifluoromethyl-pyridin-3-yl)-quinolin-6-yloxy]-pyrrolidin-1-yl}-propan-1-one], the IC50 was found to be 35 nM at PI3K alpha and 27 nM at PI3K delta.

`COc1ncc(-c2ccnc3ccc(O[C@H]4CCN(C(=O)C5CCOCC5)C4)cc23)cc1C` [Example A14, {(S)-3-[4-(6-Methoxy-5-methyl-pyridin-3-yl)-quinolin-6-yloxy]-pyrrolidin-1-yl}-(tetrahydro-pyran-4-yl)methanone]: the results for the IC50 on PI3K alpha and at PI3K delta were 253 nM and 6 nM, respectively.

As to `Cc1cc(-c2ccnc3ccc(O[C@H]4CCN(C(=O)C(C)C)C4)cc23)cnc1S(C)(=O)=O` [Example A36, 1-{(S)-3-[4-(6-Methanesulfonyl-5-methyl-pyridin-3-yl)-quinolin-6-yloxy]-pyrrolidin-1-yl}-2-methyl-propan-1-one], the IC50 amounted to 1570 nM at PI3K alpha and 39 nM at PI3K delta.
